Values of other authors, collected in patent US10751297B2, “Composition and method for treating skin conditions” (priority 2017, dated 2020).

What was measured:
HIV-1 = conditions: in vitro
Friend virus = conditions: in vivo
[1] = system: respiratory syncytial virus; conditions: in vitro
[2] = system: early viral protein synthesis
herpes simplex virus = conditions: in vitro
[3] = system: acyclovir-resistant HSV strains

For CCCCCCCCCCCCCCCCCCCCCCO [docosanol], the “antiviral activity against HIV-1” value (HIV-1) is given as “potent antiviral activity”, the “antiviral activity against Friend virus” value (Friend virus) is given as “potent antiviral activity” and the “antiviral activity against respiratory syncytial virus” value [1] is given as “potent antiviral activity”. For the same compound, the “inhibition of early viral protein synthesis” value [2] was “more than 80%”, the “antiviral activity against herpes simplex virus” value (herpes simplex virus) was “potent antiviral activity” and the “concentration up to which not cytotoxic” value (cells) was “up to 300 mM”. For the same compound, the “effectiveness in acyclovir-resistant HSV strains” value [3] was “effective”.
